Tests used:
β2-AR/cAMP signaling = assay: FRET imaging of cAMP (ICUE3 probe) in hBSMCs after β2-AR stimulation; assay type: cell-based, human; settings: hBSMCs pre-treated 50 μM, 30 minutes; ISO 100 nM + CGP-20712A 100 nM
Protocol: Human bronchial smooth muscle cells (hBSMCs) were transfected with a plasmid encoding the FRET probe for cAMP, ICUE3 (described in the U.S. Pat. No. 8,236,523 B2) (2), by electroporation with a Nucleofector device (AMAXA, Gaithersburg, Md.), according to the manufacturer's protocol. Briefly, 1×10^6 cells were re-suspended in 100 μL of nucleofection solution (VPI-1004, AMAXA, Gaithersburg, Md.), mixed with 1 μg of pcDNA3-ICUE3 (described in U.S. Pat. No. 8,236,523 B2), and subjected to electroporation in a nucleofection apparatus of Amaxa Biosystems (Program A-033). Live cell imaging experiments were performed at 24 hours after transfection.
Measurements of cAMP levels were performed on human bronchial smooth muscle cells (hBSMCs) that express the FRET probe ICUE3, as described previously (2). Briefly, cells were maintained in a K^+-Ringer solution containing (in mmol/L) 121.6 NaCl, 5.4 KCl, 1.8 MgCl2, 1.8 CaCl2, 4 NaHCO3, 0.8 NaH2PO4, 5 D-glucose, 5 sodium pyruvate, 10 HEPES, at pH 7.4. […] FRET efficiency was calculated using the “Method 3” provided by the Leica wizard application for FRET imaging and sensitized emission, according to which: EA(i)=B/A, where EA(i) is the apparent FRET efficiency; A and B are the intensities of the CFP channel and FRET, respectively. […]

hBSMCs = assay: Measurements of calcium transients (Indo-1) in hBSMCs; assay type: cell-based, human; settings: 50 μM, 30 minutes
Protocol: Cells were washed with a Tyrode solution containing (in mmol/L): 5 HEPES, 154 NaCl, 4 KCl, 2 CaCl2, 1 MgCl2, 5.5 D-glucose, at pH 7.35 and placed on an inverted microscope. Cells were kept in Tyrode solution and treated with a KCl depolarizing solution containing (in mmol/L): 5 HEPES, 118 NaCl, 40 KCl, 2 CaCl2, 1 MgCl2, 5.5 D-glucose, at pH 7.35. Calcium transients were analyzed as the ratio of fluorescence signals measured at 400 nm and 490 nm following excitation of Indo-1-AM-loaded cells at 350 nm. Experiments were recorded and analyzed with Igor® Software, using the functions added by Jason Rothman (Neuromatic, www.thinkrandom.com).

[1] = tested on: Cav1.2 subunit (Ser-1928) of the L-type calcium channel (LTCC); assay: Western blot of cAMP-dependent phosphorylation of Cav1.2 in hBSMCs; assay type: cell-based, human; settings: 50 μM, 30 minutes, vs vehicle or P1
Protocol: For protein extraction from murine tracheal smooth muscle cells (mTSMCs) and human bronchial smooth muscle cells (hBSMCs), cells were treated with the indicated drugs/peptides and immediately lysed in cold lysis buffer containing 120 mmol/L NaCl, 50 mmol/L Tris-HCl (pH 8.0), complete protease inhibitors (Roche Applied Science, Indianapolis, Ind.) and phosphatase inhibitors (50 mmol/L sodium fluoride, 1 mmol/L sodium orthovanadate and 10 mmol/L sodium pyrophosphate). After 30 min of incubation on ice, lysates were centrifuged at 13000 rpm for 10 min at 4° C. and used for either Western blotting or subjected to immunoprecipitation and measurements of phosphodiesterase activity.

[2] = tested on: lung inflammation in mice sensitized with ovalbumin; assay: Analysis of airway inflammation in asthmatic mice; assay type: in vivo, BALB/C mice; settings: OVA-sensitized mice, vs P1
Protocol: Ovalbumin (100 μg) (OVA, Sigma-Aldrich, St. Louis, Mo.), complexed with aluminum potassium sulfate (1 mg, alum) was administered intraperitoneally (i.p.) on days 1 and 14, and intra-nasally (i.n.) (50 μg OVA in 50 μl PBS) on days 14, 25, 26, and 27. Control mice received i.p. injections of alum and i.n. injections of PBS only. Airway hyperreactivity induced by inhaled methacholine was measured at 24 hours after the final dose of OVA (Day 28).
Wild-type BALB/C mice were treated, by intra-tracheal instillation, with 25 μg of the Trojan peptide derived from PI3Kγ or equimolar amounts of P1 control peptide, in a final volume of 70 μL of phosphate-buffered saline (PBS), before each intranasal administration of ovalbumin (days 14, 25, 26, and 27 of the protocol of immunization with ovalbumin). At 24 hours after the final injection (day 28), mice were anesthetized (sodium pentobarbital, 70-90 mg/kg, i.p.) and the tracheas incised and cannulated. The airways were washed with 2.5 ml of phosphate-buffered saline solution (PBS). The total number of cells in the bronchoalveolar lavage (BAL) was determined with a Neubauer hemocytometer. A volume of 50 μL of BAL was centrifuged onto cytospin glass slides at 400 rpm at room temperature for 5 minutes and stained with a Diff-Quick system (LabAids, Ronkonkoma, USA). A total of 100 cells per slide were counted and classified as neutrophils, macrophages, lymphocytes and eosinophils on the basis of morphological criteria. Erythrocytes and epithelial cells were ignored and the results were expressed as cells/ml.
To assess the peribronchial inflammation, the lungs of a group of animals that had not been subjected to bronchoalveolar lavage were explanted, fixed in a solution of 4% paraformaldehyde (PFA) for 24 hours at 4° C. and embedded in paraffin. Slices that were 5 μm-thick, deparaffinized, stained with a hematoxylin-eosin solution (Bio-Optica, Milano, Italy), dehydrated and mounted with glass coverslips. The extent of peribronchial inflammation was classified as follows: 0—normal; 1—few inflammatory cells; 3—a thick ring of inflammatory cells.
To evaluate the presence of goblet cells, lung slices were stained with periodic acid-Schiff's reagent (PAS) (Bio-Optica, Milano, Italy) and the percentage of PAS-positive cells was calculated by counting the number of PAS-positive epithelial cells and total epithelial cells.

[3] = 25 μg/mouse intra-tracheal before each intranasal OVA

## RQIKIWFQNRRMKWKKGKATHRSPGQIHLVQRHPPSEESQAF (fusion peptide comprising SEQ ID No.1 and SEQ ID No.3) [Trojan peptide derived from PI3Kγ]
β2-AR/cAMP signaling
  increase of cAMP accumulation following stimulation of β2-ARs: 35%
hBSMCs; 40 mM KCl depolarizing solution
  influx of Ca2+ induced by KCl (through VOCCs): completely abolished
hBSMCs; carbachol 10 μM, vs vehicle or P1
  maximum peak of Ca2+ transients induced by carbachol: significantly lower
[1]
  cAMP-mediated phosphorylation of Cav1.2: significantly higher
[2]; [3]
  number of goblet cells (PAS-positive): significantly reduced
  number of neutrophils in the bronchoalveolar lavage: significantly lower
  peribronchial inflammatory infiltrate: significantly reduced
[2]; 25 μg/mouse
  eosinophils in the bronchoalveolar lavage: unchanged
  lymphocytes in the bronchoalveolar lavage: unchanged
  macrophages in the bronchoalveolar lavage: unchanged
